Laboratory results reported in US20150160195A1, “HUMAN LIVER TUMOR CELL LINE AND METHOD OF AGENT SCREENING” (Industrial Technology Research Institute, priority 2013, published 2015).

Legend:
[1] = tested on: human liver tumor cell line ITRI-H16; assay: Cell viability of ITRI-H16 cells after 48-hour treatment, Alarmablue measurement assay; settings: read-out: half maximal inhibitory concentration (IC50) in the ITRI-H16 cell line
liver cancer = settings: phase III of human clinical trials; cited from earlier work

## CNC(=O)c1cc(Oc2ccc(NC(=O)Nc3ccc(Cl)c(C(F)(F)F)c3)cc2)ccn1 [Sorafenib]
[1]
  IC50: ~14 µM
Liver cancer
  extension of patient survival time: three-month
